Values after ≈ are worked out from the molar mass of the structure shown.
Tests used:
Type in all cases: functional
[1] = system: Mycobacterium tuberculosis; test: Antitubercular activity against Mycobacterium tuberculosis H37Rv assessed as growth inhibition by BACTEC MGIT method
Proteus vulgaris = test: Antibacterial activity against Proteus vulgaris MTCC 1771 assessed as growth inhibition by agar streak dilution method
[2] = system: Mycobacterium tuberculosis; test: Antitubercular activity against Mycobacterium tuberculosis H37Rv assessed as growth inhibition by Lowenstein-Jensen method
Shigella flexneri = test: Antibacterial activity against Shigella flexneri MTCC 1457 assessed as growth inhibition by agar streak dilution method
Salmonella typhi = test: Antibacterial activity against Salmonella enterica subsp. enterica serovar Typhi MTCC 733 assessed as growth inhibition by agar streak dilution method
Aspergillus fumigatus = test: Antifungal activity against Aspergillus fumigatus MTCC 343 assessed as growth inhibition by agar streak dilution method
Escherichia coli = test: Antibacterial activity against Escherichia coli MTCC 739 assessed as growth inhibition by agar streak dilution method
Staphylococcus aureus = test: Antibacterial activity against Staphylococcus aureus MTCC 96 assessed as growth inhibition by agar streak dilution method
Bacillus cereus = test: Antibacterial activity against Bacillus cereus MTCC 430 assessed as growth inhibition by agar streak dilution method
Klebsiella pneumoniae = test: Antibacterial activity against Klebsiella pneumoniae MTCC 109 assessed as growth inhibition by agar streak dilution method
[3] = system: Mycobacterium tuberculosis; test: Antitubercular activity against Mycobacterium tuberculosis H37Rv assessed as growth inhibition at MIC by Lowenstein-Jensen method
Aspergillus clavatus = test: Antifungal activity against Aspergillus clavatus MTCC 1323 assessed as growth inhibition by agar streak dilution method
Candida albicans = test: Antifungal activity against Candida albicans MTCC 183 assessed as growth inhibition by agar streak dilution method
Pseudomonas aeruginosa = test: Antibacterial activity against Pseudomonas aeruginosa MTCC 741 assessed as growth inhibition by agar streak dilution method
Aspergillus niger = test: Antifungal activity against Aspergillus niger MTCC 282 assessed as growth inhibition by agar streak dilution method
[4] = system: Mycobacterium tuberculosis; test: Antitubercular activity against Mycobacterium tuberculosis H37Rv assessed as growth inhibition at MIC by BACTEC MGIT method

Compound	MIC [1] [µg/mL]	MIC (Proteus vulgaris) [µg/mL]	MIC [2] [µg/mL]	MIC (Shigella flexneri) [µg/mL]	MIC (Salmonella typhi) [µg/mL]	MIC (Aspergillus fumigatus) [µg/mL]	MIC (Escherichia coli) [µg/mL]	MIC (Staphylococcus aureus) [µg/mL]	MIC (Bacillus cereus) [µg/mL]	MIC (Klebsiella pneumoniae) [µg/mL]	growth inhibition (GI) [3] [%]	MIC (Aspergillus clavatus) [µg/mL]	MIC (Candida albicans) [µg/mL]	MIC (Pseudomonas aeruginosa) [µg/mL]	MIC (Aspergillus niger) [µg/mL]	growth inhibition (GI) [4] [%]
O=C(CSc1nnc(-c2cc3ccccc3oc2=O)o1)Nc1nc2ccc(I)cc2s1	> 6.25	> 100	100 (≈ 178 µM)	100 (≈ 178 µM)	100 (≈ 178 µM)	100 (≈ 178 µM)	50 (≈ 88.9 µM)	100 (≈ 178 µM)	100 (≈ 178 µM)	100 (≈ 178 µM)	97	100 (≈ 178 µM)	100 (≈ 178 µM)	> 100	100 (≈ 178 µM)	–
Cc1ccc2nc(NC(=O)CSc3nnc(-c4cc5ccccc5oc4=O)o3)sc2c1	> 6.25	100 (≈ 222 µM)	200 (≈ 444 µM)	> 100	100 (≈ 222 µM)	> 100	> 100	100 (≈ 222 µM)	100 (≈ 222 µM)	100 (≈ 222 µM)	95	100 (≈ 222 µM)	100 (≈ 222 µM)	100 (≈ 222 µM)	> 100	–
NC(=O)c1cnccn1 [PYRAZINAMIDE]	6.25 (≈ 50.8 µM)	–	–	–	–	–	–	–	–	–	–	–	–	–	–	99
O=C(CSc1nnc(-c2cc3ccccc3oc2=O)o1)Nc1nc2ccccc2s1	> 6.25	100 (≈ 229 µM)	500 (≈ 1150 µM)	100 (≈ 229 µM)	100 (≈ 229 µM)	> 100	> 100	100 (≈ 229 µM)	100 (≈ 229 µM)	> 100	95	> 100	> 100	50 (≈ 115 µM)	> 100	–
O=C(CSc1nnc(-c2cc3ccccc3oc2=O)o1)Nc1nc2ccc(Cl)cc2s1	> 6.25	50 (≈ 106 µM)	62.5 (≈ 133 µM)	25 (≈ 53.1 µM)	50 (≈ 106 µM)	25 (≈ 53.1 µM)	50 (≈ 106 µM)	50 (≈ 106 µM)	6.25 (≈ 13.3 µM)	100 (≈ 212 µM)	96	100 (≈ 212 µM)	100 (≈ 212 µM)	100 (≈ 212 µM)	12.5 (≈ 26.5 µM)	–
CCOc1ccc(NC(=O)CSc2nnc(-c3cc4ccccc4oc3=O)o2)cc1	> 6.25	100 (≈ 236 µM)	25 (≈ 59 µM)	100 (≈ 236 µM)	50 (≈ 118 µM)	100 (≈ 236 µM)	50 (≈ 118 µM)	25 (≈ 59 µM)	100 (≈ 236 µM)	100 (≈ 236 µM)	98	100 (≈ 236 µM)	50 (≈ 118 µM)	6.25 (≈ 14.8 µM)	100 (≈ 236 µM)	–
O=C(CSc1nnc(-c2cc3ccccc3oc2=O)o1)Nc1ccc([N+](=O)[O-])cc1	> 6.25	25 (≈ 58.9 µM)	500 (≈ 1180 µM)	100 (≈ 236 µM)	100 (≈ 236 µM)	50 (≈ 118 µM)	50 (≈ 118 µM)	100 (≈ 236 µM)	100 (≈ 236 µM)	100 (≈ 236 µM)	94	100 (≈ 236 µM)	12.5 (≈ 29.5 µM)	> 100	100 (≈ 236 µM)	–
CO[C@H]1/C=C/O[C@@]2(C)Oc3c(C)c(O)c4c(O)c(c(/C=N/N5CCN(C)CC5)c(O)c4c3C2=O)NC(=O)/C(C)=C\C=C\[C@H](C)[C@H](O)[C@@H](C)[C@@H](O)[C@@H](C)[C@H](OC(C)=O)[C@@H]1C [RIFAMPIN]	0.25 (≈ 0.304 µM)	–	–	–	–	–	–	–	–	–	–	–	–	–	–	99
O=C(CSc1nnc(-c2cc3ccccc3oc2=O)o1)Nc1nc2ccc([N+](=O)[O-])cc2s1	> 6.25	12.5 (≈ 26 µM)	250 (≈ 519 µM)	100 (≈ 208 µM)	100 (≈ 208 µM)	100 (≈ 208 µM)	100 (≈ 208 µM)	50 (≈ 104 µM)	100 (≈ 208 µM)	50 (≈ 104 µM)	96	100 (≈ 208 µM)	50 (≈ 104 µM)	100 (≈ 208 µM)	50 (≈ 104 µM)	–
CC[C@@H](CO)NCCN[C@@H](CC)CO [ETHAMBUTOL]	3.12 (≈ 15.3 µM)	–	–	–	–	–	–	–	–	–	–	–	–	–	–	99
O=C(CSc1nnc(-c2cc3ccccc3oc2=O)o1)Nc1ccc(I)cc1	> 6.25	50 (≈ 99 µM)	12.5 (≈ 24.7 µM)	100 (≈ 198 µM)	> 100	100 (≈ 198 µM)	100 (≈ 198 µM)	100 (≈ 198 µM)	100 (≈ 198 µM)	100 (≈ 198 µM)	99	100 (≈ 198 µM)	100 (≈ 198 µM)	100 (≈ 198 µM)	100 (≈ 198 µM)	–
COc1ccc(NC(=O)CSc2nnc(-c3cc4ccccc4oc3=O)o2)cc1	> 6.25	100 (≈ 244 µM)	50 (≈ 122 µM)	100 (≈ 244 µM)	25 (≈ 61.1 µM)	100 (≈ 244 µM)	50 (≈ 122 µM)	6.25 (≈ 15.3 µM)	100 (≈ 244 µM)	100 (≈ 244 µM)	97	50 (≈ 122 µM)	100 (≈ 244 µM)	25 (≈ 61.1 µM)	100 (≈ 244 µM)	–
O=C(CSc1nnc(-c2cc3ccccc3oc2=O)o1)Nc1ccc(Cl)cc1	> 6.25	100 (≈ 242 µM)	100 (≈ 242 µM)	50 (≈ 121 µM)	100 (≈ 242 µM)	25 (≈ 60.4 µM)	25 (≈ 60.4 µM)	50 (≈ 121 µM)	25 (≈ 60.4 µM)	100 (≈ 242 µM)	96	100 (≈ 242 µM)	50 (≈ 121 µM)	100 (≈ 242 µM)	25 (≈ 60.4 µM)	–
CCOc1ccc2nc(NC(=O)CSc3nnc(-c4cc5ccccc5oc4=O)o3)sc2c1	> 6.25	100 (≈ 208 µM)	50 (≈ 104 µM)	100 (≈ 208 µM)	12.5 (≈ 26 µM)	100 (≈ 208 µM)	50 (≈ 104 µM)	12.5 (≈ 26 µM)	25 (≈ 52 µM)	100 (≈ 208 µM)	97	50 (≈ 104 µM)	100 (≈ 208 µM)	6.25 (≈ 13 µM)	100 (≈ 208 µM)	–
CC(=O)Nc1ccc(NC(=O)CSc2nnc(-c3cc4ccccc4oc3=O)o2)cc1	> 6.25	> 100	250 (≈ 573 µM)	> 100	> 100	> 100	> 100	50 (≈ 115 µM)	100 (≈ 229 µM)	> 100	95	50 (≈ 115 µM)	100 (≈ 229 µM)	50 (≈ 115 µM)	> 100	–
O=C(CSc1nnc(-c2cc3ccccc3oc2=O)o1)Nc1ccc(F)cc1	> 6.25	100 (≈ 252 µM)	25 (≈ 62.9 µM)	50 (≈ 126 µM)	50 (≈ 126 µM)	50 (≈ 126 µM)	50 (≈ 126 µM)	12.5 (≈ 31.5 µM)	50 (≈ 126 µM)	100 (≈ 252 µM)	99	100 (≈ 252 µM)	25 (≈ 62.9 µM)	100 (≈ 252 µM)	50 (≈ 126 µM)	–
CC(=O)Nc1ccc2nc(NC(=O)CSc3nnc(-c4cc5ccccc5oc4=O)o3)sc2c1	> 6.25	> 100	100 (≈ 203 µM)	100 (≈ 203 µM)	100 (≈ 203 µM)	> 100	100 (≈ 203 µM)	50 (≈ 101 µM)	100 (≈ 203 µM)	100 (≈ 203 µM)	96	12.5 (≈ 25.3 µM)	> 100	12.5 (≈ 25.3 µM)	100 (≈ 203 µM)	–
NNC(=O)c1ccncc1 [ISONIAZID]	0.2 (≈ 1.46 µM)	–	–	–	–	–	–	–	–	–	–	–	–	–	–	99
